Patent US12383619B2, “Use of glutamate modulating agents with immunotherapies to treat cancer” (Biohaven Therapeutics Ltd., priority 2016, dated 2025)
Where two headings read alike, the source gives them in different places.

Legend:
GL261 cells = assay: Orthotopic GL261 glioma model, survival of mice; assay type: in vivo, C57BL/6J mice
Description: In this Example, the effects of the combination of a glutamate modulator, BHV-4157, in combination with an immunotherapeutic agent, anti-PD-1, were compared to either alone in a glioma model substantially as decribed in Zeng, J., et al., Int J Radiat Oncol Biol Phys., 2013 Jun. 1; 86(2):343-349, portions of which are reproduced below.
GL261-Luc cells are grown in Dulbecco's Modified Eagle Medium (DMEM)+10% fetal bovineserum+1% penicillinstreptomycin at 37° C. in a humidified incubator maintained at 5% CO2 and 5% O2 (Gibco).
Female C57BL/6J mice (Harlan), 4 to 6 weeks old or 6 to 8 weeks old, are used for orthotopic glioma experiments as described in Sonabend A M, Velicu S, Ulasov IV, et al. A safety and efficacy study of local delivery of interleukin 12 transgene by PPC polymer in a model of experimental glioma. Anticancer Drugs. 2008;19:133-142. To establish syngeneic gliomas, 130,000 GL261-Luc cells are stereotactically injected in a 1 μl volume into the left striatum over 1 minute into the following coordinates: 1 mm anterior, 1 mm lateral from bregma, and 3 mm deep from the cortical surface. Tumor burden is monitored by luciferase imaging on days 7, 21 and 35 after implantation, and the mice are randomly allocated into treatment arms based on tumor radiance, so that the average tumor radiance in each group is roughly equivalent. The animals are euthanized when they show predetermined signs of neurologic deficits (failure to ambulate, weight loss >20% body mass, lethargy, hunched posture). […] Each arm has 6 to 10 mice in survival experiments. All experiments are repeated at least in triplicate.
Hamster antimurine PD-1 monoclonal antibody producing hybridoma G4 are used to produce antibodies as described in Hirano F, Kaneko K, Tamura H, et al. Blockade of B7-H1 and PD-1 by monoclonal antibodies potentiates cancer therapeutic immunity. Cancer Res. 2005;65:1089-1096.
Female C57BL/6J mice, 4 to 6 weeks old, were implanted intrancranially in the left striatum with 130,000 GL261 cells each. The mice were housed and maintained according to the institutional Animal Care and Use Committee protocol in the Johns Hopkins University Animal Facility. The mice were imaged by bioluminescent IVIS® imaging (Perkin Elmer) at day 7, 21, and 35 to assess tumor burden and randomly assigned to groups, 10 mice per arm, as follows: • 1. Control • 2. anti-PD-1 • 3. Trigriluzole 15 mg/kg • 4. Trigriluzole 30 mg/kg • 5. Trigriluzole 45 mg/kg • 6. anti-PD-1+Trigriluzole 15 mg/kg • 7. anti-PD-1+Trigriluzole 30 mg/kg • 8. anti-PD-1+Trigriluzole 45 mg/kg
Day 0 represents the date of intracranial implantation. Control arm 1 received no treatment. Control arm 2 received αPD-1 alone at a dose of 200 μg/animal via intraperitoneal injection on days 10, 12, 14. Control arms 3, 4 and 5 received BHV-4157 alone at doses of 15, 30 and 45 mg/kg (respectively) via intraperitoneal injection daily beginning on day 10. Control arms 6, 7 and 8 received BHV-4157 at doses of 15, 30 and 45 mg/kg (respectively) via intraperitoneal injection daily beginning on day 10 and αPD-1 at a dose of 200 μg/animal via intraperitoneal injection on days 10, 12, 14.
Animals were euthanized according to humane endpoints including central nervous system disturbances, hunched posture, lethargy, weight loss, and inability to ambulate.

advanced NSCLC = conditions: cited from earlier work; for OS: Hazard ratio / PFS: Hazard ratio: pembrolizumab compared to docetaxel
advanced melanoma = conditions: cited from earlier work; for Response duration: Median in months: patients with confirmed complete or partial response; for OS: Hazard ratio / PFS: Hazard ratio: pembrolizumab compared to ipilimumab
[1] = TPS 1% (entire population), 75 mg/m^2 every 3 weeks
[2] = TPS≥50% (section head prints 'TPS'), 75 mg/m^2 every 3 weeks
[3] = TPS 1% (entire population), 2 mg/kg every 3 weeks
[4] = TPS 1% (entire population), 10 mg/kg every 3 weeks
[5] = TPS≥50% (section head prints 'TPS'), 2 mg/kg every 3 weeks
[6] = TPS≥50% (section head prints 'TPS'), 10 mg/kg every 3 weeks

CN(CC(=O)Nc1nc2ccc(OC(F)(F)F)cc2s1)C(=O)CNC(=O)CN [BHV-4157, 2-Amino-N-{[methyl({[6-(trifluoromethoxy)-1,3-benzothiazol-2-yl]carbamoyl}methyl)carbamoyl]methyl}acetamide]
Percent survival of mice after tumor implantation (GL261 cells; Arm 3: 15 mg/kg i.p. daily from day 10, day 0): 100%
Percent survival of mice after tumor implantation (GL261 cells; Arm 3: 15 mg/kg i.p. daily from day 10, day 21): 90%
Percent survival of mice after tumor implantation (GL261 cells; Arm 3: 15 mg/kg i.p. daily from day 10, day 22): 80%
Percent survival of mice after tumor implantation (GL261 cells; Arm 3: 15 mg/kg i.p. daily from day 10, day 23): 70%
Percent survival of mice after tumor implantation (GL261 cells; Arm 3: 15 mg/kg i.p. daily from day 10, day 24): 50%
Percent survival of mice after tumor implantation (GL261 cells; Arm 3: 15 mg/kg i.p. daily from day 10, day 26): 30%
Percent survival of mice after tumor implantation (GL261 cells; Arm 3: 15 mg/kg i.p. daily from day 10, day 27): 20%
Percent survival of mice after tumor implantation (GL261 cells; Arm 3: 15 mg/kg i.p. daily from day 10, day 28): 10%
Percent survival of mice after tumor implantation (GL261 cells; Arm 3: 15 mg/kg i.p. daily from day 10, day 36): 0%
Percent survival of mice after tumor implantation (GL261 cells; Arm 4: 30 mg/kg i.p. daily from day 10, day 0): 100%
Percent survival of mice after tumor implantation (GL261 cells; Arm 4: 30 mg/kg i.p. daily from day 10, day 21): 90%
Percent survival of mice after tumor implantation (GL261 cells; Arm 4: 30 mg/kg i.p. daily from day 10, day 23): 70%
Percent survival of mice after tumor implantation (GL261 cells; Arm 4: 30 mg/kg i.p. daily from day 10, day 24): 50%
Percent survival of mice after tumor implantation (GL261 cells; Arm 4: 30 mg/kg i.p. daily from day 10, day 26): 30%
Percent survival of mice after tumor implantation (GL261 cells; Arm 4: 30 mg/kg i.p. daily from day 10, day 29): 20%
Percent survival of mice after tumor implantation (GL261 cells; Arm 4: 30 mg/kg i.p. daily from day 10, day 34): 10%
Percent survival of mice after tumor implantation (GL261 cells; Arm 4: 30 mg/kg i.p. daily from day 10, day 60): 10%
Percent survival of mice after tumor implantation (GL261 cells; Arm 5: 45 mg/kg i.p. daily from day 10, day 0): 100%
Percent survival of mice after tumor implantation (GL261 cells; Arm 5: 45 mg/kg i.p. daily from day 10, day 21): 90%
Percent survival of mice after tumor implantation (GL261 cells; Arm 5: 45 mg/kg i.p. daily from day 10, day 22): 80%
Percent survival of mice after tumor implantation (GL261 cells; Arm 5: 45 mg/kg i.p. daily from day 10, day 23): 70%
Percent survival of mice after tumor implantation (GL261 cells; Arm 5: 45 mg/kg i.p. daily from day 10, day 24): 60%
Percent survival of mice after tumor implantation (GL261 cells; Arm 5: 45 mg/kg i.p. daily from day 10, day 25): 50%
Percent survival of mice after tumor implantation (GL261 cells; Arm 5: 45 mg/kg i.p. daily from day 10, day 27): 20%
Percent survival of mice after tumor implantation (GL261 cells; Arm 5: 45 mg/kg i.p. daily from day 10, day 28): 10%
Percent survival of mice after tumor implantation (GL261 cells; Arm 5: 45 mg/kg i.p. daily from day 10, day 29): 0%

CC(=O)O[C@@]12CO[C@@H]1C[C@H](O)[C@@]1(C)C(=O)[C@H](O)C3=C(C)[C@@H](OC(=O)[C@H](O)[C@@H](NC(=O)OC(C)(C)C)c4ccccc4)C[C@@](O)([C@@H](OC(=O)c4ccccc4)[C@H]21)C3(C)C [Docetaxel, docetaxel]
PFS: Number of patients with event (advanced NSCLC; TPS 1% (entire population), 75 mg/m^2 every 3 weeks, BICR, RECIST 1.1): 257
OS: % of patients with event (advanced NSCLC; [1]): (56%)
OS: Number of patients with event (advanced NSCLC; [1]): 193
Overall response rate: ORR % (advanced NSCLC; [1]): 9%
PFS: % of patients with event (advanced NSCLC; [1]): (75%)
PFS: Median in months (advanced NSCLC; [1]): 4.0 months
Response duration: % ongoing (advanced NSCLC; [1]): 34%
Response duration: Median in months (advanced NSCLC; [1]): 6.2 months
Overall response rate: ORR % (advanced NSCLC; TPS≥50% (section head prints 'TPS'), 75 mg/m^2 every 3 weeks, all partial responses): 8%
OS: % of patients with event (advanced NSCLC; [2]): (57%)
OS: Median in months (advanced NSCLC; [2]): 8.2 months
OS: Number of patients with event (advanced NSCLC; [2]): 86
PFS: % of patients with event (advanced NSCLC; [2]): (78%)
PFS: Median in months (advanced NSCLC; [2]): 4.1 months
PFS: Number of patients with event (advanced NSCLC; [2]): 118
Response duration: % ongoing (advanced NSCLC; [2]): 33%
Response duration: Median in months (advanced NSCLC; [2]): 8.1 months

Pembrolizumab: humanized monoclonal IgG4 antibody directed against human cell surface receptor PD-1
PFS: Number of patients with event (advanced NSCLC; TPS 1% (entire population), 2 mg/kg every 3 weeks, BICR, RECIST 1.1): 266
OS: % of patients with event (advanced NSCLC; [3]): (50%)
OS: Number of patients with event (advanced NSCLC; [3]): 172
Overall response rate: ORR % (advanced NSCLC; [3]): 18%
PFS: % of patients with event (advanced NSCLC; [3]): (77%)
PFS: Median in months (advanced NSCLC; [3]): 3.9 months
Response duration: % ongoing (advanced NSCLC; [3]): 73%
Response duration: Median in months (advanced NSCLC; [3]): Not reached
OS: Hazard ratio (advanced NSCLC; [3]): 0.71
PFS: Hazard ratio (advanced NSCLC; [3]): 0.88
PFS: Number of patients with event (advanced NSCLC; TPS 1% (entire population), 10 mg/kg every 3 weeks, BICR, RECIST 1.1): 255
OS: % of patients with event (advanced NSCLC; [4]): (45%)
OS: Number of patients with event (advanced NSCLC; [4]): 156
Overall response rate: ORR % (advanced NSCLC; [4]): 18%
PFS: % of patients with event (advanced NSCLC; [4]): (74%)
PFS: Median in months (advanced NSCLC; [4]): 4.0 months
Response duration: % ongoing (advanced NSCLC; [4]): 72%
Response duration: Median in months (advanced NSCLC; [4]): Not reached
OS: Hazard ratio (advanced NSCLC; [4]): 0.61
PFS: Hazard ratio (advanced NSCLC; [4]): 0.79
Overall response rate: ORR % (advanced NSCLC; TPS≥50% (section head prints 'TPS'), 2 mg/kg every 3 weeks, all partial responses): 30%
OS: % of patients with event (advanced NSCLC; [5]): (42%)
OS: Median in months (advanced NSCLC; [5]): 14.9 months
OS: Number of patients with event (advanced NSCLC; [5]): 58
PFS: % of patients with event (advanced NSCLC; [5]): (64%)
PFS: Median in months (advanced NSCLC; [5]): 5.2 months
PFS: Number of patients with event (advanced NSCLC; [5]): 89
Response duration: % ongoing (advanced NSCLC; [5]): 76%
Response duration: Median in months (advanced NSCLC; [5]): Not reached
OS: Hazard ratio (advanced NSCLC; [5]): 0.54
PFS: Hazard ratio (advanced NSCLC; [5]): 0.58
Overall response rate: ORR % (advanced NSCLC; TPS≥50% (section head prints 'TPS'), 10 mg/kg every 3 weeks, all partial responses): 29%
OS: % of patients with event (advanced NSCLC; [6]): (40%)
OS: Median in months (advanced NSCLC; [6]): 17.3 months
OS: Number of patients with event (advanced NSCLC; [6]): 60
PFS: % of patients with event (advanced NSCLC; [6]): (64%)
PFS: Median in months (advanced NSCLC; [6]): 5.2 months
PFS: Number of patients with event (advanced NSCLC; [6]): 97
Response duration: % ongoing (advanced NSCLC; [6]): 75%
Response duration: Median in months (advanced NSCLC; [6]): Not reached
OS: Hazard ratio (advanced NSCLC; [6]): 0.50
PFS: Hazard ratio (advanced NSCLC; [6]): 0.59
Best overall response: ORR % (advanced melanoma; 10 mg/kg every 2 weeks): 34%
Complete response % (advanced melanoma; 10 mg/kg every 2 weeks): 5%
OS: % of patients with event (advanced melanoma; 10 mg/kg every 2 weeks): (30%)
OS: Median in months (advanced melanoma; 10 mg/kg every 2 weeks): Not reached
OS: Number of patients with event (advanced melanoma; 10 mg/kg every 2 weeks): 85
PFS: % of patients with event (advanced melanoma; 10 mg/kg every 2 weeks): (56%)
PFS: Median in months (advanced melanoma; 10 mg/kg every 2 weeks): 5.5 months
PFS: Number of patients with event (advanced melanoma; 10 mg/kg every 2 weeks): 157
Partial response % (advanced melanoma; 10 mg/kg every 2 weeks): 29%
Response duration: % ongoing (advanced melanoma; 10 mg/kg every 2 weeks): 89%
Response duration: Median in months (advanced melanoma; 10 mg/kg every 2 weeks): 8.3 months
OS: Hazard ratio (advanced melanoma; 10 mg/kg every 2 weeks): 0.63
PFS: Hazard ratio (advanced melanoma; 10 mg/kg every 2 weeks): 0.58
Best overall response: ORR % (advanced melanoma; 10 mg/kg every 3 weeks): 33%
Complete response % (advanced melanoma; 10 mg/kg every 3 weeks): 6%
OS: % of patients with event (advanced melanoma; 10 mg/kg every 3 weeks): (33%)
OS: Median in months (advanced melanoma; 10 mg/kg every 3 weeks): Not reached
OS: Number of patients with event (advanced melanoma; 10 mg/kg every 3 weeks): 92
PFS: % of patients with event (advanced melanoma; 10 mg/kg every 3 weeks): (57%)
PFS: Median in months (advanced melanoma; 10 mg/kg every 3 weeks): 4.1 months
PFS: Number of patients with event (advanced melanoma; 10 mg/kg every 3 weeks): 157
Partial response % (advanced melanoma; 10 mg/kg every 3 weeks): 27%
Response duration: % ongoing (advanced melanoma; 10 mg/kg every 3 weeks): 97%
Response duration: Median in months (advanced melanoma; 10 mg/kg every 3 weeks): Not reached
OS: Hazard ratio (advanced melanoma; 10 mg/kg every 3 weeks): 0.69
PFS: Hazard ratio (advanced melanoma; 10 mg/kg every 3 weeks): 0.58
